According to patent US7476670B2, “Purine derivatives, method for preparing, pharmaceutical compositions and novel use” (Aventis Pharma S.A., priority 2003, dated 2009):

What was measured:
Type in all cases: biochemical
[1] = biological target: GSK3beta (Homo sapiens, UniProt P49841); assay: Assay for inhibition of GSK3beta activity; details: [33P]ATP; read-out: IC50s expressed as micromolar
Procedure: The inhibition of the kinase activity is determined by measuring the phosphorylation of its substrate peptide.
The assay is carried out in a final volume of 40 μl; all the reagents are prepared in a buffer: • 50 mM HEPES pH 7.5 • 0.03% triton X100 • 10 mM MgCl2 • 5% Glycerol • 1 mM DTT 10 μl of the 10-times concentrated inhibitor are added to 5 μl of enzyme (20 ng final concentration), and 5 μl of peptide (1 μM final concentration) then 2.5 μof incubation buffer containing 16 μM ATP and 2.5 μl of radiolabeled ATP, [^33P]ATP (50 nCi) are added. After incubation for 15 minutes at ambient temperature, 10 μl of incubation buffer containing 1 μM of substrate.

[2] = tested on: CAN Kinase II; assay: Assay for inhibition for CAN kinase II activity; details: [33P]ATP, calmodulin
Procedure: The inhibition of the kinase activity is determined by. measuring the phosphorylation of its substrate peptide.
The assay is carried out in a final volume of 50 μl.
The incubation buffer is as follows:
• 20 mM MOPS pH 7.4 • 5 mM MgCl2 • 5 mM CaCl2 • 1 mM DTT • 100 μM Na2VO4 • 25 mM Beta-glycerophosphate 5 μl of the 10-times concentrated inhibitor are added to 25 μl of incubation buffer containing 0.2 μg/μl final concentration of the enzyme (Tebu, SE-134); 10 μl of incubation buffer containing 5 μM final concentration of substrate and 1600 U/ml final concentration of calmodulin are then added and, finally, 10 μl of incubation buffer containing 20 μM ATP and radiolabeled ATP, [^33P]ATP (0.05 μCi), are added. The reaction is stopped after incubation for 40 minutes at ambient temperature. • Results obtained expressed as percentage inhibition at 20 μM • Example 30 98% 9) Assay for Inhibition of EGF tyr Kinase Activity

[3] = biological target: AKT kinase (Homo sapiens, UniProt P31749); assay: Assay for inhibition of AKT activity; details: fluorescence polarization, ATP 80 μM; read-out: IC50s expressed as micromolar
Procedure: The inhibition of the kinase activity is determined by fluorescence polarization, the AKT kinase phosphorylates a peptide detected by adding an anti-phosphopeptide antibody coupled to a fluorescent label.
The assay is carried out in a final volume of 30 μl; all the reagents are prepared in a buffer: • 50 mM HEPES pH 7.5 • 0.03% triton X100 • 10 mM MgCl2 • 5% Glycerol • 1 mM DTT 10 μl of the 10-times concentrated inhibitor are added to 5 μl of enzyme (20 ng final concentration), and 5 μl of peptide (1 μM final concentration) and 10 μl of ATP (80 μM. final concentration) are added.

[4] = biological target: T1, ZAP kinase (Homo sapiens, UniProt P43403); assay: Assay for inhibition of ZAP kinase activity; details: fluorescence polarization, read-out: percentage inhibition at 20 μM
T1 construct: purchased Panvera P2782
T1 sequence (P43403 1-619): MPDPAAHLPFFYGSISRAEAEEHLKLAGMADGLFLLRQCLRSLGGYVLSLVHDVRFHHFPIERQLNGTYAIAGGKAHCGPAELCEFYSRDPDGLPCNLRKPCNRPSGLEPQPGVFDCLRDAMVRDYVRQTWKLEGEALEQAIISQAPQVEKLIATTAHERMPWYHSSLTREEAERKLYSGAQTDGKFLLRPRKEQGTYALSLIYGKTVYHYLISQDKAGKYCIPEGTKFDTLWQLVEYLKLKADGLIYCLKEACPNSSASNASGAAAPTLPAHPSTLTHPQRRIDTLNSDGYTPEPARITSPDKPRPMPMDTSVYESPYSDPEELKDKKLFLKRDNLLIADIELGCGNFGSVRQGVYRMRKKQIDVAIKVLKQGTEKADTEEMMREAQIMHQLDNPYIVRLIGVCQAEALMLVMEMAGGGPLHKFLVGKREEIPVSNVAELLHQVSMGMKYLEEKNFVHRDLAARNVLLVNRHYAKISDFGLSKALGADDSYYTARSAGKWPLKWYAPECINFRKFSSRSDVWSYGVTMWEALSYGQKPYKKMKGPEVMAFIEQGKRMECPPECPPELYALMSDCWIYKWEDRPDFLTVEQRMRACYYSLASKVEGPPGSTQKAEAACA
Procedure: The inhibition of the kinase activity is determined by fluorescence polarization, the ZAP kinase phosphorylates a peptide detected by adding an anti-phosphopeptide antibody coupled to a fluorescent label.
The assay is carried out in a final volume of 50 μl; all the reagents are prepared in a buffer: • 20 mM Tris/HCl pH 7.7 • 7 mM MnCl2 • 50 μM Na2VO4 5 μl of the 10-times concentrated inhibitor are added to 25 μl of enzyme (0.7 μg/ml final concentration) (Panvera ref P2782). After incubation for 5 minutes at ambient temperature, 10 μl of PolyGT (300 ng/ml final concentration) and 10 μl of ATP (0.25 μM final concentration) are added. The detection is carried out after incubation for 15 minutes at ambient temperature. • Results obtained expressed as percentage inhibition at 20 μM • Example 8 98% • Example 20 95% • Example 24 96% 7) Assay for Inhibition of Casein Kinase II Activity

Chain of GSK3beta (P49841 whole entry, species assumed): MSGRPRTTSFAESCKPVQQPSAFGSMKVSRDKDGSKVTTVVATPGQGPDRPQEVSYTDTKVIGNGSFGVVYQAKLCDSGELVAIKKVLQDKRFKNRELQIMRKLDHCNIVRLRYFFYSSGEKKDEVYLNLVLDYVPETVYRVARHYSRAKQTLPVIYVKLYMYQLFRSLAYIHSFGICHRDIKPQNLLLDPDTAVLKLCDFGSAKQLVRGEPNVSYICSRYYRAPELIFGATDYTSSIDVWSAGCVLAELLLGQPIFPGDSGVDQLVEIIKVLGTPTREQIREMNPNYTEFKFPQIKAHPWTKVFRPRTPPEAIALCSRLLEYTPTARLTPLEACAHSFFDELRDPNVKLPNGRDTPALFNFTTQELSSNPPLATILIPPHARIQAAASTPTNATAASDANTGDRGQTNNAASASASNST
Chain of AKT kinase (P31749 whole entry): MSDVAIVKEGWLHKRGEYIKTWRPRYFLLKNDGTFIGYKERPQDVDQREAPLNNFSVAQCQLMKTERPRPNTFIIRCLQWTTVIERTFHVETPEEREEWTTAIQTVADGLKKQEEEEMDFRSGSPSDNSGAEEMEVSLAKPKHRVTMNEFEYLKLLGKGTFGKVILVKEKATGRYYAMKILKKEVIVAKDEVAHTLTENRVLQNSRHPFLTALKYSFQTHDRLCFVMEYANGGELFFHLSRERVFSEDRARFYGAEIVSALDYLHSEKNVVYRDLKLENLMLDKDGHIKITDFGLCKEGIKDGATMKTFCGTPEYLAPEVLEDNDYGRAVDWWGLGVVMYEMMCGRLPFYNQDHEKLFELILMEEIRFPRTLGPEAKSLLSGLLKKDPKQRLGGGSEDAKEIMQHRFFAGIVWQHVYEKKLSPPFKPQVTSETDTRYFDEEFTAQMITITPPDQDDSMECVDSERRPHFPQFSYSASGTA

Compound: Cl.Cl.N[C@H]1CC[C@H](Nc2nc(N3CCc4cc([N+](=O)[O-])ccc43)c3nc[nH]c3n2)CC1 [Example 30, Trans-N-[6-(2,3-dihydro-5-nitro-1H-indol-1-yl)-9H-purin-2-yl]-1,4-cyclohexanediamine dihydrochloride]
- IC50 [1]: 1.5 µM
- percentage inhibition at 20 μM [2]: 98%

Compound: Cl.N[C@H]1CC[C@H](Nc2nc(-n3cnc4cc(Cl)c(Cl)cc43)c3nc[nH]c3n2)CC1 [Example 8, Trans-N-[6-(5,6-dichloro-1H-benzimidazol-1-yl)-9H-purin-2-yl]-1,4-cyclohexanediamine hydrochloride]
- IC50 [3]: 0.46 µM
- inhibition at 20 µM [4]: 98%
